Test results as given in patent US20120029045A1, “METHOD FOR TREATING PORT WINE STAINS” (SHANGHAI FUDAN-ZHANGJIANG BIO-PHARMACEUTICAL CO., LTD., priority 2010, published 2012).

Experiments:
[1] = PDT for PWS, adverse effects and crust levels; type: in vivo, human
Protocol: A solution of 1 ml saline was injected in the superficial vein (e.g. median cubital vein) of patients to ensure no liquid leaked into tissues adjacent to the blood vessels into which the injection was made. At the same site, HMME was injected intravenously for 20 minutes with a constant flow rate by using an infusion pump. The doses applied were 2.5 mg/kg body weight or 5.0 mg/kg body weight. Next, 2-4 ml of saline solution was again injected to prevent the drugs from aggregating locally. Irradiation with KTP532 laser was then applied to the patient's lesion site 0-10 minutes after the start of injection, for a total duration of irradiation of either 20 minutes (denoted as the 20 min group), or 30 minutes (denoted as the 30 minute group). […] When irradiation was started immediately after the start of injection, the overlap between the injection and irradiation was about 20 minutes, when irradiation started 5 minutes after the start of injection, the overlap between drug injection and light irradiation was approximately 15 minutes, and when irradiation was started 10 minutes after the start of injection, the overlap was about 10 minutes. The therapeutic results were measured 8 weeks after the treatment. The most common adverse temporary effects included swelling, burning, redness, pain, blister and crust formation in PDT for PWS and these symptoms occurred in almost every case. Scar or crust thickness was measured as thickening of crusts. The crust levels served as an assessment index for scars.

[2] = Dynamic change of the concentration of HpD and HMME in chicken blood; type: in vivo; details: 10 mg/kg neck vein
Protocol: HpD and HMME in chicken blood were monitored at various times after injection. HpD or HMME was injected in chicken neck veins at a dose of 10 mg/kg, taking a blood sample every 10 minutes following injection. […] The two curves shown in FIG. 2 have generally the same pattern.

[3] = Part A, 5.0 mg/kg, patients treated for 20 min
[4] = Part B, 2.5 mg/kg group, irradiated 20 min
[5] = Part B, 5.0 mg/kg group, irradiated 20 min
[6] = Part B, 2.5 and 5.0 mg/kg, irradiated 20 min

Q: For hematoporphyrin monomethyl ether [HMME], which “Blister, Mild (cases)” value ([1]; 5.0 mg/kg, 20 min group) is on record?
A: 0

Q: And the “Blister, Moderate (cases)” value ([1]; 5.0 mg/kg, 20 min group)?
A: 0

Q: And the “Blister, Rate (%)” value ([1]; 5.0 mg/kg, 20 min group)?
A: 0.0%

Q: And the “Blister, total (cases)” value ([1]; 5.0 mg/kg, 20 min group)?
A: 10

Q: What about the “Burning, Mild (cases)” value ([1]; 5.0 mg/kg, 20 min group) of the same substance?
A: 0

Q: What about the “Burning, Moderate (cases)” value ([1]; 5.0 mg/kg, 20 min group) of the same substance?
A: 0

Q: And the “Burning, Rate (%)” value ([1]; 5.0 mg/kg, 20 min group)?
A: 0.0%

Q: And the “Burning, total (cases)” value ([1]; 5.0 mg/kg, 20 min group)?
A: 0

Q: And the “Pain, Mild (cases)” value ([1]; 5.0 mg/kg, 20 min group)?
A: 1

Q: What about the “Pain, Moderate (cases)” value ([1]; 5.0 mg/kg, 20 min group) of the same substance?
A: 9

Q: And the “Pain, Rate (%)” value ([1]; 5.0 mg/kg, 20 min group)?
A: 50.0%

Q: And the “Pain, total (cases)” value ([1]; 5.0 mg/kg, 20 min group)?
A: 10

Q: What about the “Redness, Mild (cases)” value ([1]; 5.0 mg/kg, 20 min group) of the same substance?
A: 0

Q: What about the “Redness, Moderate (cases)” value ([1]; 5.0 mg/kg, 20 min group) of the same substance?
A: 0

Q: And the “Redness, Rate (%)” value ([1]; 5.0 mg/kg, 20 min group)?
A: 0.0%

Q: What about the “Redness, total (cases)” value ([1]; 5.0 mg/kg, 20 min group) of the same substance?
A: 0

Q: What about the “Swelling, Mild (cases)” value ([1]; 5.0 mg/kg, 20 min group) of the same substance?
A: 9

Q: What about the “Swelling, Moderate (cases)” value ([1]; 5.0 mg/kg, 20 min group) of the same substance?
A: 9

Q: And the “Swelling, Rate (%)” value ([1]; 5.0 mg/kg, 20 min group)?
A: 90.0%

Q: And the “Swelling, total (cases)” value ([1]; 5.0 mg/kg, 20 min group)?
A: 18

Q: What about the “crust level Moderate thick and fractional, (%)” value ([1]; 5.0 mg/kg, 20 min group) of the same substance?
A: (5.0) %

Q: And the “crust level Moderate thick and full, (%)” value ([1]; 5.0 mg/kg, 20 min group)?
A: (0.0) %

Q: What about the “crust level None, (%)” value ([1]; 5.0 mg/kg, 20 min group) of the same substance?
A: (25.0) %

Q: And the “crust level Thin and fractional, (%)” value ([1]; 5.0 mg/kg, 20 min group)?
A: (50.0) %

Q: What about the “crust level Thin and full, (%)” value ([1]; 5.0 mg/kg, 20 min group) of the same substance?
A: (20.0) %

Q: And the “Blister, Mild (cases)” value ([1]; 5.0 mg/kg, 30 min group)?
A: 2

Q: What about the “Blister, Moderate (cases)” value ([1]; 5.0 mg/kg, 30 min group) of the same substance?
A: 0

Q: And the “Blister, Rate (%)” value ([1]; 5.0 mg/kg, 30 min group)?
A: 10.0%

Q: What about the “Blister, total (cases)” value ([1]; 5.0 mg/kg, 30 min group) of the same substance?
A: 2

Q: And the “Burning, Mild (cases)” value ([1]; 5.0 mg/kg, 30 min group)?
A: 0

Q: And the “Burning, Moderate (cases)” value ([1]; 5.0 mg/kg, 30 min group)?
A: 1

Q: What about the “Burning, Rate (%)” value ([1]; 5.0 mg/kg, 30 min group) of the same substance?
A: 5.0%

Q: And the “Burning, total (cases)” value ([1]; 5.0 mg/kg, 30 min group)?
A: 1

Q: What about the “Pain, Mild (cases)” value ([1]; 5.0 mg/kg, 30 min group) of the same substance?
A: 3

Q: What about the “Pain, Moderate (cases)” value ([1]; 5.0 mg/kg, 30 min group) of the same substance?
A: 12

Q: And the “Pain, Rate (%)” value ([1]; 5.0 mg/kg, 30 min group)?
A: 75.0%

Q: And the “Pain, total (cases)” value ([1]; 5.0 mg/kg, 30 min group)?
A: 15

Q: And the “Redness, Mild (cases)” value ([1]; 5.0 mg/kg, 30 min group)?
A: 0

Q: And the “Redness, Moderate (cases)” value ([1]; 5.0 mg/kg, 30 min group)?
A: 2

Q: What about the “Redness, Rate (%)” value ([1]; 5.0 mg/kg, 30 min group) of the same substance?
A: 10.0%

Q: What about the “Redness, total (cases)” value ([1]; 5.0 mg/kg, 30 min group) of the same substance?
A: 2

Q: And the “Swelling, Mild (cases)” value ([1]; 5.0 mg/kg, 30 min group)?
A: 6

Q: What about the “Swelling, Moderate (cases)” value ([1]; 5.0 mg/kg, 30 min group) of the same substance?
A: 12

Q: And the “Swelling, Rate (%)” value ([1]; 5.0 mg/kg, 30 min group)?
A: 90.0%

Q: And the “Swelling, total (cases)” value ([1]; 5.0 mg/kg, 30 min group)?
A: 18

Q: And the “crust level Moderate thick and fractional, (%)” value ([1]; 5.0 mg/kg, 30 min group)?
A: (5.0) %

Q: And the “crust level Moderate thick and full, (%)” value ([1]; 5.0 mg/kg, 30 min group)?
A: (15.0) %

Q: And the “crust level None, (%)” value ([1]; 5.0 mg/kg, 30 min group)?
A: (15.0) %

Q: And the “crust level Thin and fractional, (%)” value ([1]; 5.0 mg/kg, 30 min group)?
A: (25.0) %

Q: And the “crust level Thin and full, (%)” value ([1]; 5.0 mg/kg, 30 min group)?
A: (40.0) %

Q: What about the “severity of adverse effects” value ([1]; Part A, 5.0 mg/kg, irradiation 20 or 30 min) of the same substance?
A: mild or moderate

Q: What about the scars [1, 3] of the same substance?
A: no scars were present

Q: What about the serious-thick crusts [1, 3] of the same substance?
A: No serious-thick crusts occurred

Q: And the “Crust Total, Rate (%)” value [1, 4]?
A: 34.7%

Q: What about the “Crust level Mild, Rate (%)” value [1, 4] of the same substance?
A: 34.7%

Q: What about the “Crust level Moderate, Rate (%)” value [1, 4] of the same substance?
A: 0.0%

Q: What about the “Crust level Serious, Rate (%)” value [1, 4] of the same substance?
A: 0.0%

Q: And the “Crust Total, Rate (%)” value [1, 5]?
A: 88.01%

Q: What about the “Crust level Mild, Rate (%)” value [1, 5] of the same substance?
A: 60.0%

Q: What about the “Crust level Moderate, Rate (%)” value [1, 5] of the same substance?
A: 28.0%

Q: What about the “Crust level Serious, Rate (%)” value [1, 5] of the same substance?
A: 0.0%

Q: What about the scars [1, 6] of the same substance?
A: no scars were formed

Q: And the serious-thick crusts [1, 6]?
A: No serious-thick crusts occurred

Q: And the Photosensitizer concentration in chicken blood ([2]; post-injection time 10 min)?
A: 6.83 µg/mL

Q: And the Photosensitizer concentration in chicken blood ([2]; post-injection time 20 min)?
A: 5.92 µg/mL

Q: And the Photosensitizer concentration in chicken blood ([2]; post-injection time 30 min)?
A: 5.33 µg/mL

Q: And the Photosensitizer concentration in chicken blood ([2]; post-injection time 40 min)?
A: 4.83 µg/mL

Q: And the Photosensitizer concentration in chicken blood ([2]; post-injection time 50 min)?
A: 4.49 µg/mL

Q: And the Photosensitizer concentration in chicken blood ([2]; post-injection time 60 min)?
A: 4.17 µg/mL

Q: What about the Photosensitizer concentration in chicken blood ([2]; post-injection time 70 min) of the same substance?
A: 3.83 µg/mL

Q: And the Photosensitizer concentration in chicken blood ([2]; post-injection time 80 min)?
A: 3.58 µg/mL

Q: What about the Photosensitizer concentration in chicken blood ([2]; post-injection time 90 min) of the same substance?
A: 3.51 µg/mL

Q: And the Photosensitizer concentration in chicken blood ([2]; post-injection time 100 min)?
A: 2.67 µg/mL

Q: And the Photosensitizer concentration in chicken blood ([2]; post-injection time 110 min)?
A: 2.42 µg/mL

Q: What about the Photosensitizer concentration in chicken blood ([2]; post-injection time 120 min) of the same substance?
A: 1.99 µg/mL

Q: What about the “time after injection at which serum concentration reaches a peak” value ([2]; chicken) of the same substance?
A: 10 min
